According to patent US4226857A, “Synthetic peptides having pituitary growth hormone releasing activity” (priority 1979, dated 1980):
Square brackets hold non-standard residues; d marks the D form. Peptide text beside a SMILES is read from it.

System: pituitaries
Experiment: In vitro growth hormone release study (rat pituitary incubation, GH radioimmunoassay)
Type: cell-based
Settings: pituitaries of 20 day old female rats, Δ of GH levels between I3, I4 and P2, ± SEM
Experimental: Female rats of the CD-1 strain were housed in a constant temperature room at 24° C. with 14 hours light and 10 hours darkness. The rats were fed Purina brand rat chow ab libitum.
All studies were started between 0800 and 1000 hours.
Pituitaries were removed from 20 day old female rats. Two pituitaries were incubated at 36° C. in 1 ml of lactated Ringer's solution in 10 ml polytetrafluoroethylene beakers in a Dubnoff Shaker (90 cycles/min.). The pituitaries were incubated a total of 4 hours (P1, P2, I3, and I4). After two successive one hour preincubation periods (P1, P2), the peptide was added to the incubation medium hourly for 2 hours (I3, I4).
This in vitro study was performed in triplicate and a standard radioimmunoassay of growth hormone present in the incubation medium was performed in duplicate. The hormonal activity was calculated as the difference (Δ) of growth hormone (GH) levels between I3, I4 and P2, i.e., (I3 -P2) and (I4 -P2). P values were calculated by Students' t test using six growth hormone values for each value recorded.
The growth hormone radioimmunoassay reagents were distributed by the National Institute of Arthritis and […] (NIAMDD) program. The growth hormone values were calculated in terms of nanograms (ng) of a rat standard with a growth hormone potency of 0.61 units/mg.

[1] = peptide 0.1μg, P <0.001 unless otherwise noted

NC(=O)[C@@H](Cc1ccccc1)NC(=O)[C@H](Cc1c[nH]c2ccccc12)NC(=O)[C@H](CO)NC(=O)[C@@H](Cc1c[nH]c2ccccc12)NC(=O)[C@@H](N)Cc1ccc(O)cc1 [H2 N--Tyr--D-Trp--Ser--Trp--D-Phe--CONH2, H2 N-Tyr-D-Trp-Ser-Trp-D-Phe-CONH2] (H-Y[dW]SW[dF]-NH2)
In vitro growth hormone release (ΔGH) [1]: 353 ± 144 ngΔGH/ml incubation medium | In vitro growth hormone release (ΔGH) (peptide 1μg, P <0.001): 3119 ± 413 ngΔGH/ml incubation medium | In vitro growth hormone release (ΔGH) (peptide 10μg, P <0.001): 3831 ngΔGH/ml incubation medium

C[C@H](NC(=O)[C@@H](Cc1c[nH]c2ccccc12)NC(=O)[C@@H](N)Cc1ccc(O)cc1)C(=O)N[C@@H](Cc1c[nH]c2ccccc12)C(=O)N[C@H](Cc1ccccc1)C(N)=O [H2 N--Tyr--D-Trp--Ala--Trp--D-Phe--CONH2, H2 N-Tyr-D-Trp-Ala-Trp-D-Phe-CONH2] (H-Y[dW]AW[dF]-NH2)
In vitro growth hormone release (ΔGH) [1]: 3409 ± 455 ngΔGH/ml incubation medium | In vitro growth hormone release (ΔGH) (peptide 0.3μg, P <0.001): 4540 ± 1200 ngΔGH/ml incubation medium | In vitro growth hormone release (ΔGH) (peptide 1μg, P <0.001): 4611 ± 510 ngΔGH/ml incubation medium | In vitro growth hormone release (ΔGH) (peptide 10μg, P <0.001): 5000 ± 662 ngΔGH/ml incubation medium
